Data taken from patent publication US10875845B2, “Compounds and methods for the treatment of ocular disorders” (Azura Ophthalmics Ltd., priority 2019, dated 2020).

Experiments:
Rabbit Cornea Homogenate = Rabbit Cornea Homogenate Stability Assay (rabbit cornea esterase assay); assay type: in vitro ADME; details: 37° C.
Method: Determining Rabbit Cornea Homogenate stability of the test compounds was performed using HPLC-MS. The assay was performed at two concentrations of Rabbit Cornea Homogenate (0.15 mg/ml and 0.45 mg/ml total protein) so that any hydrolysis observed could be assigned as esterase dependent or not.
Five rabbit corneas (e.g. New Zealand Whites) of approx. 50 mg each were sliced and scraped with a scalpel and tweezers until reduced to small (1-3 mm), thin pieces. These were transferred into a tared vial and accurately weighed, then diluted with 10 volumes aqueous PBS pH7.4
Sample was cooled intermittently on ice and shear homogenized for 3 minutes, then centrifuged for 3 min at 3000 rpm. The supernatant was pipetted off into a vial, and total protein concentration determined at 280 nm. Sample was stored at −78° C.
10 mM Compound stocks were diluted to 100 μM in a 96 deep-well plate: 10 μl of 10 mM Compound stock was added to 990 μl 50 mM HEPES, pH7.5 buffer.
Compounds were further diluted to 10 μM: 100 μl of 100 μM compound was added to 900 μl 50 mM HEPES, pH7.5 buffer.
Esterase homogenate was diluted to 300 ng/μl and 900 ng/μl
A heater shaker was set to 37° C. Into a suitable 96 well plate (Run Plate), 75 μl of 300 or 900 ng/μl esterase homogenate was pipetted into each of the required wells (2 min, 5 min, 10 min, 20 min and 45 min). The plate was sealed and then warmed at 37° C. for 5 min. Another 96 well PCR plate is put on ice (Kill Plate). To this was added 100 μl of MeCN to each well, labelled 0 min, 2 min, 5 min, 10 min, 20 min and 45 min. The plate was covered to minimise evaporation. For the T=0 sample only, to the 100 μl cold MeCN stop solution was added 50 μl of 300 or 900 ng/μl esterase homogenate followed by 50 μl of 10 μM compound solution For the remaining time points, 75 μl of 10 μM compound solution was added to the Run Plate starting from T=45 min row and ending with T=2 min row. At the appropriate time point, 100 μl of the assay mixture was added to the matching kill plate well containing 100 μl of cold MeCN. Samples were analysed as soon as practicable by LCMS (Waters Xevo TQ-S or Micromass Ultima).
Parent conjugate and parent concentrations were determined against appropriate standard response curves and the half-life (T1/2) of the parent conjugate was calculated using the peak area of the parent conjugate at each time point in the linear region of the log—linear plot.

[1] = Aqueous Hydrolysis Stability Assay; assay type: physicochemical; details: 100 μM in 50 mM HEPES pH 7.5 buffer or 1:1 Acetonitrile:Water, room temperature
Method: Determination of aqueous stability of the test compounds was performed using HPLC-MS. A test compound 10 mM stock solution was prepared in DMSO. 10 μl of the DMSO stock solution was dissolved in 990 μl of 50 mM HEPES pH 7.5 buffer or 1:1 (v/v) of Acetonitrile:Water to make a 100 μM solution. Final DMSO concentration was 1%. The solution was kept at room temperature and injected without delay into the LCMS (Waters Xevo TQ-S or Micromass Ultima). Additional injections were performed at appropriate time points.
Half-life (T1/2) of the parent conjugate was calculated using the peak area of the parent conjugate at each time point in the linear region of the log—linear plot.

[2] = Cornea Homogenate Conc 0.15 mg/mL
[3] = Cornea Homogenate Conc 0.45 mg/mL

Compound | API Formation rate (Rabbit Cornea Homogenate; [2]) | Esterase % Lifitegrast formation at 45 min (Rabbit Cornea Homogenate; [2]) | API Formation rate (Rabbit Cornea Homogenate; [3]) | Esterase % Lifitegrast formation at 45 min (Rabbit Cornea Homogenate; [3]) | Hydrolytic % Lifitegrast formation at [time] ([1]; at 142 min) | Hydrolytic % Lifitegrast formation at [time] ([1]; at 45 min) | Hydrolytic % Lifitegrast formation at [time] ([1]; at 192 min)
CC(OC(=O)OCC(COC(=O)C(C)(C)C)COC(=O)C(C)(C)C)OC(=O)[C@H](Cc1cccc(S(C)(=O)=O)c1)NC(=O)c1c(Cl)cc2c(c1Cl)CCN(C(=O)c1ccc3ccoc3c1)C2 (stereo partly drawn) [Comp 12, 2-((8S)-10-(2-(benzofuran-6-carbonyl)-5,7-dichloro-1,2,3,4-tetrahydroisoquinolin-6-yl)-5-methyl-8-(3-(methylsulfonyl)benzyl)-3,7,10-trioxo-2,4,6-trioxa-9-azadecyl)propane-1,3-diyl bis(2,2-dimethylpropanoate)] | a (API formation rate<0.5%/min) | A (percent active pharmaceutical ingredient (API) formation<25%) | a (API formation rate<0.5%/min) | A (percent active pharmaceutical ingredient (API) formation<25%) | B [142 min] (percent API formation 1.5-4%) | – | –
COC(=O)[C@@H](C)OC(=O)OC(C)OC(=O)[C@H](Cc1cccc(S(C)(=O)=O)c1)NC(=O)c1c(Cl)cc2c(c1Cl)CCN(C(=O)c1ccc3ccoc3c1)C2 (stereo partly drawn) [Comp 7, 1-(((((R)-1-methoxy-1-oxopropan-2-yl)oxy)carbonyl)oxy)ethyl (2S)-2-(2-(benzofuran-6-carbonyl)-5,7-dichloro-1,2,3,4-tetrahydroisoquinoline-6-carboxamido)-3-(3-(methylsulfonyl)phenyl) propanoate] | b (API formation rate 0.5-1.0%/min) | B (percent API formation 25% to 50%) | c (API formation rate 1.0-1.5%/min) | C (percent API formation 51% to 75%) | B [142 min] (percent API formation 1.5-4%) | – | –
CC(=O)OC(C)OC(=O)[C@H](Cc1cccc(S(C)(=O)=O)c1)NC(=O)c1c(Cl)cc2c(c1Cl)CCN(C(=O)c1ccc3ccoc3c1)C2 (stereo partly drawn) [Comp 14, 1-acetoxyethyl (2S)-2-(2-(benzofuran-6-carbonyl)-5,7-dichloro-1,2,3,4-tetrahydroisoquinoline-6-carboxamido)-3-(3-(methylsulfonyl)phenyl) propanoate] | c (API formation rate 1.0-1.5%/min) | C (percent API formation 51% to 75%) | d (API formation rate>1.5%/min) | D (percent API formation>75%) | B [142 min] (percent API formation 1.5-4%) | – | –
CC(OC(=O)CCCC[C@@H]1CCSS1)OC(=O)[C@H](Cc1cccc(S(C)(=O)=O)c1)NC(=O)c1c(Cl)cc2c(c1Cl)CCN(C(=O)c1ccc3ccoc3c1)C2 (stereo partly drawn) [Comp 20, 1-(((S)-2-(2-(benzofuran-6-carbonyl)-5,7-dichloro-1,2,3,4-tetrahydroisoquinoline-6-carboxamido)-3-(3-(methylsulfonyl)phenyl)propanoyl)oxy)ethyl 5-((R)-1,2-dithiolan-3-yl)pentanoate] | a (API formation rate<0.5%/min) | A (percent active pharmaceutical ingredient (API) formation<25%) | b (API formation rate 0.5-1.0%/min) | B (percent API formation 25% to 50%) | – | A [45 min] (percent active pharmaceutical ingredient (API) formation<1.5%) | –
CC(OC(=O)OCC(CO)CO)OC(=O)[C@H](Cc1cccc(S(C)(=O)=O)c1)NC(=O)c1c(Cl)cc2c(c1Cl)CCN(C(=O)c1ccc3ccoc3c1)C2 (stereo partly drawn) [Comp 10, 1-(((3-hydroxy-2-(hydroxymethyl)propoxy)carbonyl)oxy)ethyl (2S)-2-(2-(benzofuran-6-carbonyl)-5,7-dichloro-1,2,3,4-tetrahydroisoquinoline-6-carboxamido)-3-(3-(methylsulfonyl)phenyl) propanoate] | b (API formation rate 0.5-1.0%/min) | A (percent active pharmaceutical ingredient (API) formation<25%) | b (API formation rate 0.5-1.0%/min) | B (percent API formation 25% to 50%) | C [142 min] (percent API formation>4%) | – | –
CC(OC(=O)OCC1COC(C)(C)OC1)OC(=O)[C@H](Cc1cccc(S(C)(=O)=O)c1)NC(=O)c1c(Cl)cc2c(c1Cl)CCN(C(=O)c1ccc3ccoc3c1)C2 (stereo partly drawn) [Comp 9, 1-((((2,2-dimethyl-1,3-dioxan-5-yl)methoxy)carbonyl)oxy) ethyl (2S)-2-(2-(benzofuran-6-carbonyl)-5,7-dichloro-1,2,3,4-tetrahydroisoquinoline-6-carboxamido)-3-(3-(methylsulfonyl)phenyl) propanoate] | b (API formation rate 0.5-1.0%/min) | B (percent API formation 25% to 50%) | d (API formation rate>1.5%/min) | C (percent API formation 51% to 75%) | B [142 min] (percent API formation 1.5-4%) | – | –
CC(C)OC(=O)OC(C)OC(=O)[C@H](Cc1cccc(S(C)(=O)=O)c1)NC(=O)c1c(Cl)cc2c(c1Cl)CCN(C(=O)c1ccc3ccoc3c1)C2 (stereo partly drawn) [Comp 5, 1-((isopropoxycarbonyl)oxy)ethyl (2S)-2-(2-(benzofuran-6-carbonyl)-5,7-dichloro-1,2,3,4-tetrahydroisoquinoline-6-carboxamido)-3-(3-(methylsulfonyl)phenyl) propanoate] | b (API formation rate 0.5-1.0%/min) | B (percent API formation 25% to 50%) | d (API formation rate>1.5%/min) | D (percent API formation>75%) | – | – | A [192 min] (percent active pharmaceutical ingredient (API) formation<1.5%)
CC(=O)OCC(COC(C)=O)COC(=O)OC(C)OC(=O)[C@H](Cc1cccc(S(C)(=O)=O)c1)NC(=O)c1c(Cl)cc2c(c1Cl)CCN(C(=O)c1ccc3ccoc3c1)C2 (stereo partly drawn) [Comp 11, 2-((8S)-10-(2-(benzofuran-6-carbonyl)-5,7-dichloro-1,2,3,4-tetrahydroisoquinolin-6-yl)-5-methyl-8-(3-(methylsulfonyl)benzyl)-3,7,10-trioxo-2,4,6-trioxa-9-azadecyl)propane-1,3-diyl diacetate] | b (API formation rate 0.5-1.0%/min) | B (percent API formation 25% to 50%) | c (API formation rate 1.0-1.5%/min) | B (percent API formation 25% to 50%) | C [142 min] (percent API formation>4%) | – | –
COC(=O)OC(C)OC(=O)[C@H](Cc1cccc(S(C)(=O)=O)c1)NC(=O)c1c(Cl)cc2c(c1Cl)CCN(C(=O)c1ccc3ccoc3c1)C2 (stereo partly drawn) [Comp 3, 1-((methoxycarbonyl)oxy) ethyl (2S)-2-(2-(benzofuran-6-carbonyl)-5,7-dichloro-1,2,3,4-tetrahydroisoquinoline-6-carboxamido)-3-(3-(methylsulfonyl)phenyl) propanoate] | d (API formation rate>1.5%/min) | B (percent API formation 25% to 50%) | b (API formation rate 0.5-1.0%/min) | C (percent API formation 51% to 75%) | – | B [45 min] (percent API formation 1.5-4%) | –
